For assay [1], the system named is anaesthetized male Sprague-Dawley rats. Briefly: Hemodynamics in anaesthetized rats (IV bolus). Conditions: healthy anaesthetized rats. The assay is classed as in vivo, rat. The procedure:
The hemodynamic profile of h-SCP (SEQ ID NO:1) was determined in sodium pentobarbital anaesthetized male Sprague-Dawley rats (FIG. 10). A SPR-320 Mikro-Tip® integrated catheter-tipped micro-manometer (Millar Instruments, Houston, Tex., U.S.A.) was placed in the right femoral artery for blood pressure measurements, and another one directly in the left ventricle for LV pressure measurement. […] The changes in hemodynamic parameters induced by h-SCP (SEQ ID NO:1, full circle in FIG. 10) were blocked by pretreatment with anti-sauvagine-30 (SEQ ID NO:118, open circle in FIG. 10).

Another assay addresses T1, CRHR1 (Homo sapiens, UniProt P34998).
T1 sequence (P34998 24-415): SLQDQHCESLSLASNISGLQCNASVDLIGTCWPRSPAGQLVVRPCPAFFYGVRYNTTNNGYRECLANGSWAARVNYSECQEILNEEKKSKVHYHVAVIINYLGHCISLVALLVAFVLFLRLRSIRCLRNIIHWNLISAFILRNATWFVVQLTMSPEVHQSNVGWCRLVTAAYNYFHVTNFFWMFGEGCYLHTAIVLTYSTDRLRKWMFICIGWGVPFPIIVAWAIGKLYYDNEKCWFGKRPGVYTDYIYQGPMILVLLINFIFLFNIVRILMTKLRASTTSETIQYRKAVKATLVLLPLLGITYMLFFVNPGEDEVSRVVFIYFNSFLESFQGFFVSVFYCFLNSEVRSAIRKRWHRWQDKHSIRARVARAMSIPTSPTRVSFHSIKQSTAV
In words: CRHR1 radioligand binding, [125I]-(Tyr0)-sauvagine. Also on record: host or cells: cell membranes. From the text: The solution was then homogenized with a Polytron tissue grinder at a setting of 10 and 7×3 s (Brinkmann Instruments, Westbury, N.Y.). […] The bound radioactivity was separated by filtration using a Multiscreen Resist manifold (Millipore Corp., Billerica, Mass., U.S.A). The filters were washed three times with ice-cold PBS at pH 7.5 and radioactivity retained on the filters was quantified by its liquid scintillation measured by a TopCount counter (Packard BioScience, Boston, Mass., U.S.A). All experiments were performed in triplicate.

The subject of assay [2] is dogs with advanced heart failure. In words: Hemodynamic, angiographic, echocardiographic profile in anaesthetized dogs with advanced heart failure, IV infusion. The assay is classed as in vivo, dog. As for the experimental part:
The effects of h-SCP (SEQ ID NO:1) on cardiovascular function were also assessed in anaesthetized dogs with advanced, irreversible heart failure of ischemic etiology (Sabbah et al., 1991, Am. J. Physiol., vol. 260, pp. H1379-H1384; Sabbah et al., 1994, Circulation, vol. 98, pp. 2852-2859; Chandler et al., 2002, Circ. Res., vol. 91, pp. 278-280). Progressive, advanced heart failure was produced in mongrel dogs by multiple sequential intracoronary microembolization with polystyrene latex microspheres. Dose infusions of 2.2, 4.3, and 7.3 ng/kg/min were administered intravenously over 60 minutes just following or just prior to hemodynamic, angiographic, echocardiographic, and Doppler measurements using conventional hemodynamic, angiographic, echocardiographic, and radiographic methods. The h-SCP polypeptide (SEQ ID NO:1) produced dose- (infusion-) dependent increases in LVEF and SV and decreases in left ventricular end diastolic pressure (LVEDP), left ventricular pressure during isovolumic relaxation (LV-dP/dt), systemic vascular resistance (SVR), and left ventricular end-systolic volume (LVESV) that correlated with plasma concentration. No significant change in heart rate, peak systolic aortic blood pressure, LV+dP/dt, mean pulmonary artery pressure, mean pulmonary artery wedge pressure, right atrial pressure, or myocardial oxygen consumption were recorded following any of the 1 hour intravenous infusions (Table 18 and FIGS. 12 A & B). The improvement in LV systolic and diastolic function was not associated with the development of de novo ventricular arrhythmias.
In order to determine the threshold effective dose-infusion in dogs with advanced heart failure, a further study was performed at lower dose infusions. In addition, the opportunity was taken to explore whether the increase in LVEF produced by higher dose-infusions of 4.3 ng/kg/min would remain stable over a longer infusion period, i.e. 120 minutes.
In order to understand the potential cardiovascular effects of neutralizing antibody formation to h-SCP (SEQ ID NO:1), SV30 (SEQ ID No. 118), a competitive antagonist of CRHR2, was administered to dogs (N=4) with advanced heart failure. […] These experiments with SV30 indicate that baseline cardiovascular parameters in dogs with advanced heart failure were not dependent upon endogenous hormone stimulation of CRHR2. Similar findings have been reported in healthy conscious and anaesthetized rats (Gardiner et al., J. Pharmacol. Exp. Ther., 2007, vol 321, pp. 221-226).

For a further assay, the target named is T2, human CRHR2 (Homo sapiens, UniProt Q13324).
T2 construct: expressed in transfected cells
T2 sequence (Q13324 1-411): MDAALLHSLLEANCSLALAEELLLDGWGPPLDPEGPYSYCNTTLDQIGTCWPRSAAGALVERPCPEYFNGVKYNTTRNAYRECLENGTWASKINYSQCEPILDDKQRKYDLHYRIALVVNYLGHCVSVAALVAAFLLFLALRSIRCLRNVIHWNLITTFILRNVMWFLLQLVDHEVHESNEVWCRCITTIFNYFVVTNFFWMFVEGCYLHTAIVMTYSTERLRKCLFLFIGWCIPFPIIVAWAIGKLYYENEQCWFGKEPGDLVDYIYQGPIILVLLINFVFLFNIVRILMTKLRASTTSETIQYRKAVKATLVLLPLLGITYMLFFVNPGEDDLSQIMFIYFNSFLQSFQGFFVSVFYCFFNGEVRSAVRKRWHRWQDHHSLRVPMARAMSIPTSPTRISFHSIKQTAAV
In words: CRHR2 radioligand binding, [125I]-anti-sauvagine-30, SK-N-MC membranes. Conditions: CRHR2. As for the experimental part: The binding profile of h-SCP (SEQ ID NO:1) at CRHR2 was determined in radioligand binding studies in a membrane preparation of SK-N-MC cells stably transfected with human CRHR2 using [^125I]-anti-sauvagine-30 as the radiolabel. […] The solution was then homogenized with a Polytron tissue grinder at a setting of 10 and 7×3 s (Brinkmann Instruments, Westbury, N.Y.). […] The supernatant was re-centrifuged at 26,892×g for 25 min at 4° Celsius with the final pellet being re-suspended in assay buffer. […] For competition studies, cell membranes of […] volume were incubated with either 60 pM [^125I]-anti-sauvagine-30 in 50 μl volume for the CRHR2 assay or with)[^125I]-([…]-sauvagine for the CRHR1 assay in the presence of 15 μl of competing ligand for 120 min having a total volume of 150 μl. […] The bound radioactivity was separated by filtration using a Multiscreen Resist manifold (Millipore Corp., Billerica, Mass., U.S.A). The filters were washed three times with ice-cold PBS at pH 7.5 and radioactivity retained on the filters was quantified by its liquid scintillation measured by a TopCount counter (Packard BioScience, Boston, Mass., U.S.A). All experiments were performed in triplicate. Data from individual competition curves were expressed as the percentage of specific [^125I]-anti-sauvagine-30 or)[^125I]-([…]-sauvagine binding (B) within each experiment. […] The competition curve obtained with h-SCP (SEQ ID NO:1) was biphasic.

Assay [3] has as its target T3, human corticotrophin releasing hormone receptor type 1 (CRHR1) (human), P34998.
T3 chain: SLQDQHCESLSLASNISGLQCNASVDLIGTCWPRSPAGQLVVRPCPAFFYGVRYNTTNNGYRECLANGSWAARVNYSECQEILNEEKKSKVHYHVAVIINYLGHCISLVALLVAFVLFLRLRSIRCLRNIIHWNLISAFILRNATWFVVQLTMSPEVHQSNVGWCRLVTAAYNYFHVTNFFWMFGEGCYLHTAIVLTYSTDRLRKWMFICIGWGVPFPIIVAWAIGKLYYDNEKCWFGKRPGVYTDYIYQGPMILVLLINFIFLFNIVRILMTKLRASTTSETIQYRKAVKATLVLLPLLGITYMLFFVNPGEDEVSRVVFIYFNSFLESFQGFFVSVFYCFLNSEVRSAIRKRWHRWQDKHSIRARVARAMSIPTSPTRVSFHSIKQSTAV
Briefly: radioligand competition against [125I]-(Tyr0)-sauvagine, CRHR1 assay, cell membranes. As to conditions: remark: other sources report otherwise.

Assay [4] has as its target T4, human corticotrophin releasing hormone receptor type 2 (CRHR2) (human) (UniProt Q13324).
T4 sequence (looked up): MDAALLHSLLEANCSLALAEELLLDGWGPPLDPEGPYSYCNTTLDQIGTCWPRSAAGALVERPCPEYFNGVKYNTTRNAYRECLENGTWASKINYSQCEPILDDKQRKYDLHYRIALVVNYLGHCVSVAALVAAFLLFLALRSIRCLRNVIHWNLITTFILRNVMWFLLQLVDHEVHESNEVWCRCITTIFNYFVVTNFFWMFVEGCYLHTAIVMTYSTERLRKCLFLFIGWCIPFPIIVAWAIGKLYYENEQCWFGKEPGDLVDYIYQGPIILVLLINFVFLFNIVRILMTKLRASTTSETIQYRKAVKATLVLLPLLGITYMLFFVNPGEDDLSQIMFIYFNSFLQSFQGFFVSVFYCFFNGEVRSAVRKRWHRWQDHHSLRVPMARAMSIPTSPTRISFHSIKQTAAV
In words: radioligand competition against [125I]-anti-sauvagine-30, membranes of SK-N-MC cells with human CRHR2.

Assay [5] addresses T5, human corticotrophin releasing hormone receptor type 1 (CRHR1) (human, UniProt P34998 24-415).
T5 sequence (looked up): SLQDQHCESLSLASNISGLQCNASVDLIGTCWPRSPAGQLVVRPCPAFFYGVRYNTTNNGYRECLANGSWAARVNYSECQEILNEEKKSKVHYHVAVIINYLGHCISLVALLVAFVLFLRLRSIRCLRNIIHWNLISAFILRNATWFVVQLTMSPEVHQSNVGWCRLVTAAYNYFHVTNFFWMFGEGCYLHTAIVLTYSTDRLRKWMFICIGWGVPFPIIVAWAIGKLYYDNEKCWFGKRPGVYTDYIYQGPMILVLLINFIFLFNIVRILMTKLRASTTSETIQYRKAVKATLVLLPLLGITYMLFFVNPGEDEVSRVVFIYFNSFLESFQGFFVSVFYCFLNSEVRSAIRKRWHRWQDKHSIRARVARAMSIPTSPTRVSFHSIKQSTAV
Briefly: cell-based or functional assay.

For assay [6], the target named is T4, human corticotrophin releasing hormone receptor type 2 (CRHR2) (human). In words: cell-based or functional assay.

Where no end group is shown, it is not given here. Some results are limits rather than exact numbers.

Turning to `CC[C@H](C)[C@H](NC(=O)[C@@H](NC(=O)[C@H](CC(=O)O)NC(=O)[C@H](CC(C)C)NC(=O)[C@H](CC(C)C)NC(=O)[C@H](CC(C)C)NC(=O)[C@H](CCCNC(=N)N)NC(=O)[C@H](CC(N)=O)NC(=O)[C@H](CC(N)=O)NC(=O)[C@H](C)NC(=O)[C@H](C)NC(=O)[C@H](CCC(N)=O)NC(=O)[C@H](CCC(N)=O)NC(=O)[C@H](CCCCN)NC(=O)[C@H](CCC(=O)O)NC(=O)[C@H](CCCCN)NC(=O)[C@H](CCC(=O)O)NC(=O)[C@H](CCC(N)=O)NC(=O)[C@H](CCCCN)NC(=O)[C@H](CCC(=O)O)NC(=O)[C@@H](NC(=O)[C@H](CCC(=O)O)NC(=O)[C@@H](NC(=O)[C@H](CCSC)NC(=O)[C@H](CCCCN)NC(=O)[C@H](CCCNC(=N)N)NC(=O)[C@H](CC(C)C)NC(=O)[C@H](CC(C)C)NC(=O)[C@H](Cc1c[nH]cn1)NC(=O)C(N)Cc1ccccc1)[C@@H](C)CC)[C@@H](C)CC)[C@@H](C)O)C(N)=O` (stereo partly drawn) [SEQ ID NO: 118, FHLLRKMIEIEKQEKEKQQAANNRLLLDTI-NH2, reference compound], the “effect on baseline hemodynamic parameters” value in assay [1] is reported as “did not inhibit baseline parameters”. The molecule further had a nH at CRHR1 of 1.00 ± 0.49. The “effect on cardiovascular parameters” value in assay [2] (CRHR2 blocking doses in dogs with advanced heart failure (N=4)) is on record as “without effect on cardiovascular parameters”. In assay [2] (Table 20, AS-30 alone), the CO came to 1.44 ± 0.04 L/min, the HR amounted to 79 ± 3 beats/min, the “LV+dP/dt” value is 1675 ± 109 mmHg/sec and the LVEDP was 15 ± 1 mmHg. Besides, in assay [2] (Table 20, AS-30 alone), the LVEDV is 68 ± 2.7 mL, the LVEF is on record as 27 ± 0%, the LVESV is 50 ± 1.9 mL and the MPAP is reported as 16 ± 0.7 mmHg. In assay [2] (Table 20, AS-30 alone), the PSAP was 94 ± 5 mmHg and the SV was determined as 18 ± 0.8 mL. On human CRHR2, the nH turned out to be 1.15 ± 0.12.

For FTLSLDVPTNIMNLLFNIAKAKNLRAQAAANAHLMAQI-NH2 [human urocortin III], the pKI in assay [3] was 4.96 -log10(M); in assay [4], 6.49 -log10(M). The figures for the pA50 in assay [5] and in assay [6] were < 5 -log10(M) and 9.26 -log10(M), respectively.

The values are drawn from patent US20110105397A1, “METHOD FOR TREATING HEART FAILURE WITH STRESSCOPIN-LIKE PEPTIDES” (priority 2009, published 2011).
